Experimental data from patent US10316017B2, “COT modulators and methods of use thereof” (Gilead Sciences, Inc., priority 2015, dated 2019).
Read-outs that look alike come from different tables or passages of the source.

Key:
[1] = target: T1, human Cot catalytic domain (30-397 amino acids) (Homo sapiens, UniProt P41279); assay: High Throughput Cot Biochemical Assay (KinEASE TR-FRET); settings: read-out: IC50 HTRF
T1 construct: Purified recombinant human Cot catalytic domain (30-397 amino acids) was purchased from Cama Biosciences; purchased Cama Biosciences (so in the source)
T1 sequence (P41279 30-397): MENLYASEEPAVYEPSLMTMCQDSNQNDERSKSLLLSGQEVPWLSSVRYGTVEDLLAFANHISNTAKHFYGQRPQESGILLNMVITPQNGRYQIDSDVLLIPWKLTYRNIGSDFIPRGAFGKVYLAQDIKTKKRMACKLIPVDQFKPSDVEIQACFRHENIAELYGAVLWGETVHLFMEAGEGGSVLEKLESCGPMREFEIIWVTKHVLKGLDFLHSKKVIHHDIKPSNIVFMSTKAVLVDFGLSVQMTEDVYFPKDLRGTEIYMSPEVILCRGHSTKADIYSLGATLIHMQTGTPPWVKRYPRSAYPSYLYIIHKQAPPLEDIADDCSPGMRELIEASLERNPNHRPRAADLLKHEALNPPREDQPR
Outline: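 TR-FRET readout: Eu-labeled phospho-specific antibody binds XL665-tagged STK3 peptide after phosphorylation by Cot (aa 30-397, 5 nM). Conditions: 400 μM ATP, 1 μM peptide, MOPS pH 7.0 buffer with MgOAc, DTT, BSA, NP-40, glycerol; 0.1% DMSO.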

[2] = system: TNFα production in LPS-stimulated human monocytes; assay: Cot Monocyte TNFα Cell Based Assay; settings: Homo sapiens, Monocyte, read-out: EC50 TNF
Outline: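 TR-FRET read-out of total secreted TNFα, normalized as % control (unstimulated = 0%, LPS-stimulated = 100%). Cells (5,000/well) were exposed to compound 1 h at 37 °C, then to 50 pg/ml LPS for a further 4 h.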

[3] = Cot KinEASE TR-FRET (HTRF) biochemical assay, 400 μM ATP
[4] = TNFα in LPS-stimulated human monocytes
[5] = Cot KinEASE TR-FRET, 400 μM ATP
[6] = LPS-stimulated human monocytes, TNFα TR-FRET
[7] = Cot biochemical HTRF (KinEASE TR-FRET) assay

Row | SMILES | IC50 [1, 3] [nM] | EC50 [2, 4] [nM] | IC50 [1, 5] [nM] | EC50 [2, 6] [nM] | IC50 [1, 7] [nM]
1 | CC(C)(C)CNc1c(C#N)cnc2c(C#N)cc(N[C@@H](c3cccc(C(=O)N4CC(O)C4)c3)c3cn(C4CC4)nn3)cc12 [Example 57, (S)-6-(((1-cyclopropyl-1H-1,2,3-triazol-4-yl) (3-(3-hydroxyazetidine-1-carbonyl)phenyl)methyl)amino)-4-(neopentylamino) quinoline-3,8-dicarbonitrile] | 3 | > 1000 | – | – | –
2 | [2H]C(Nc1cc(C#N)c2ncc(C#N)c(NCC(C)(C)C)c2c1)(c1cn(C2(C(F)F)CC2)nn1)c1ccccc1Cl (centres unmarked) [Example 1111, 6-(((2-chlorophenyl)(1-(1-(difluoromethyl)cyclopropyl)-1H-1,2,3-triazol-4-yl)methyl-d)amino)-4-(neopentylamino)-quinoline-3,8-dicarbonitrile] | – | – | 13 | 98 | –
3 | [2H][C@](Nc1cc(Cl)c2ncc(C#N)c(Nc3cccc(Cl)c3Cl)c2c1)(c1ccc(F)cc1)c1cn(C2CC2)nn1 [Example 206, (S)-8-chloro-6-(((1-cyclopropyl-1H-1,2,3-triazol-4-yl)(4-fluorophenyl)methyl-d)amino)-4-((2,3-dichlorophenyl)amino)quinoline-3-carbonitrile] | 52 | 547 | – | – | –
4 | N#Cc1cnc2c(Cl)cc(N[C@@H](c3ccc(F)cc3)c3cn(-c4cccnc4)nn3)cc2c1Nc1cnc(F)c(F)c1 [Example 389, (S)-8-chloro-4-((5,6-difluoropyridin-3-yl)amino)-6-(((4-fluorophenyl) (1-(pyridin-3-yl)-1H-1,2,3-triazol-4-yl)methyl)amino)quinoline-3-carbonitrile] | 37 | 817 | – | – | –
5 | [2H][C@](Nc1cc(C2CC2)c2ncc(C#N)c(NCC(C)(C)C)c2c1)(c1ccc(F)cc1)c1cn(C2CC2)nn1 [Example 232, (S)-8-cyclopropyl-6-(((1-cyclopropyl-1H-1,2,3-triazol-4-yl)(4-fluorophenyl)methyl-d)amino)-4-(neopentylamino)quinoline-3-carbonitrile] | 215 | 2440 | – | – | –
6 | CC(C)CNc1c(C#N)cnc2c(Cl)cc(N[C@@H](c3ccc(F)cc3)c3cn(C4CC4)nn3)cc12 [Example 345, (S)-8-chloro-6-(((1-cyclopropyl-1H-1,2,3-triazol-4-yl)(4-fluorophenyl)methyl)amino)-4-(isobutylamino)quinoline-3-carbonitrile] | 57 | 976 | – | – | –
7 | Cc1c([C@H](Nc2cc(C#N)c3ncc(C#N)c(NCC(C)(C)C)c3c2)c2cn(C3(C(F)(F)F)CC3)nn2)cccc1-n1cncn1 [Example 1043, (S)-6-(((2-methyl-3-(1H-1,2,4-triazol-1-yl)phenyl)(1-(1-(trifluoromethyl)cyclopropyl)-1H-1,2,3-triazol-4-yl)methyl)amino)-4-(neopentylamino)quinoline-3,8-dicarbonitrile] | – | – | 3 | 110 | –
8 | N#Cc1cnc2c(Cl)cc(N[C@@H](c3ccccc3)c3cn(C4CC4)nn3)cc2c1N[C@@H](c1ccccc1)C(F)(F)CO [Example 986, 8-chloro-6-(((S)-(1-cyclopropyl-1H-1,2,3-triazol-4-yl)(phenyl)methyl)amino)-4-(((S)-2,2-difluoro-3-hydroxy-1-phenylpropyl)amino)quinoline-3-carbonitrile] | – | – | 13 | 222 | –
9 | [2H][C@@](Nc1cc(Cl)c2ncc(C#N)c(NCC(C)(C)C)c2c1)(c1cn(C2CC2)nn1)c1c(F)cccc1Cl [Example 101, (S)-8-chloro-6-(((2-chloro-6-fluorophenyl) (1-cyclopropyl-1H-1,2,3-triazol-4-yl)methyl-d)amino)-4-(neopentylamino) quinoline-3-carbonitrile] | 83 | > 1000 | – | – | –
10 | N#Cc1cnc2c(Cl)cc(N[C@@H](c3ccccc3)c3cn(CCCN4CCCC4)nn3)cc2c1Nc1ccc(F)c(Cl)c1 [Example 545, (S)-8-chloro-4-((3-chloro-4-fluorophenyl)amino)-6-((phenyl (1-(3-(pyrrolidin-1-yl)propyl)-1H-1,2,3-triazol-4-yl)methyl)amino)quinoline-3-carbonitrile] | – | 88 | – | – | 3
11 | CC(C)n1cc([C@@H](Nc2cc(Cl)c3ncc(C#N)c(Nc4cnc(F)c(F)c4)c3c2)c2cccc(-c3nccn3C)c2)nn1 [Example 385, (S)-8-chloro-4-((5,6-difluoropyridin-3-yl)amino)-6-(((1-isopropyl-1H-1,2,3-triazol-4-yl)(3-(1-methyl-1H-imidazol-2-yl)phenyl)methyl)amino) quinoline-3-carbonitrile] | 4 | 692 | – | – | –
12 | [2H][C@](Nc1cc(-c2cncnc2)c2ncc(C#N)c(N[C@H](CC)c3ccccc3)c2c1)(c1ccc(F)cc1)c1cn(C2CC2)nn1 [Example 81, 6-(((S)-(1-cyclopropyl-1H-1,2,3-triazol-4-yl)(4-fluorophenyl)methyl-d)amino)-4-(((R)-1-phenylpropyl)amino)-8-(pyrimidin-5-yl)quinoline-3-carboitrile] | 20 | 316 | – | – | –
13 | [2H]C(Nc1cc(Cl)c2ncc(C#N)c(N[C@H]3CCCCC3(C)C)c2c1)(c1ccc(F)cc1)c1cn(C2CC2)nn1 (stereo in doubt) [Example 319, 8-chloro-6-(((S)-(1-cyclopropyl-1H-1,2,3-triazol-4-yl)(4-fluorophenyl)methyl-d)amino)-4-(((S)-2,2-dimethylcyclohexyl)amino) quinoline-3-carbonitrile] | 372 | 4480 | – | – | –
14 | N#Cc1cnc2c(Cl)cc(N[C@@H](c3ccc(F)cc3)c3cn(CC(F)F)nn3)cc2c1Nc1cnc(F)c(F)c1 [Example 409, (S)-8-chloro-6-(((1-(2,2-difluoroethyl)-1H-1,2,3-triazol-4-yl)(4-fluorophenyl)methyl)amino)-4-((5,6-difluoropyridin-3-yl)amino)quinoline-3-carbonitrile] | – | 776 | – | – | 23

Now from value to compound:

Row | IC50 [1, 3] [nM] | EC50 [2, 4] [nM] | IC50 [1, 5] [nM] | EC50 [2, 6] [nM] | IC50 [1, 7] [nM] | SMILES
15 | 9530 | > 10000 | – | – | – | [2H][C@](Nc1cc(-c2ccccc2)c2ncc(C#N)c(NCC(C)(C)C)c2c1)(c1ccc(F)cc1)c1cn(C2CC2)nn1 [Example 171, (S)-6-(((1-cyclopropyl-1H-1,2,3-triazol-4-yl)(4-fluorophenyl)methyl-d)amino)-4-(neopentylamino)-8-phenylquinoline-3-carbonitrile]
16 | – | 470 | – | – | 21 | N#Cc1cnc2c(Cl)cc(N[C@@H](c3ccccc3)c3cn(-c4cccnc4)nn3)cc2c1Nc1ccc(F)c(Cl)c1 [Example 721, (S)-8-chloro-4-((3-chloro-4-fluorophenyl)amino)-6-((phenyl (1-(pyridin-3-yl)-1H-1,2,3-triazol-4-yl)methyl)amino)quinoline-3-carbonitrile]
17 | – | 713 | – | – | 27 | CC(C)n1cc([C@@H](Nc2cc(Cl)c3ncc(C#N)c(Nc4cccc(Cl)c4F)c3c2)c2ccccc2)nn1 [Example 591, (S)-8-chloro-4-((3-chloro-2-fluorophenyl)amino)-6-(((1-isopropyl-1H-1,2,3-triazol-4-yl)(phenyl)methyl)amino) quinoline-3-carbonitrile]
18 | 199 | > 1000 | – | – | – | [2H][C@](Nc1cc(-c2ccnnc2)c2ncc(C#N)c(NCC(C)(C)C)c2c1)(c1ccc(F)cc1)c1cn(C2CC2)nn1 [Example 75, (S)-6-(((1-cyclopropyl-1H-1,2,3-triazol-4-yl)(4-fluorophenyl)methyl-d)amino)-4-(neopentylamino)-8-(pyridazin-4-yl)quinoline-3-carbonitrile]
19 | – | – | 4 | 75 | – | Cc1c(C#N)cccc1[C@H](Nc1cc(Cl)c2ncc(C#N)c(NCC(C)(C)C)c2c1)c1nnn(C2(C(F)F)CC2)c1F [Example 1168, (S)-8-chloro-6-(((3-cyano-2-methylphenyl)(1-(1-(difluoromethyl)cyclopropyl)-5-fluoro-1H-1,2,3-triazol-4-yl)methyl)amino)-4-(neopentylamino)quinoline-3-carbonitrile]
20 | 495 | > 10000 | – | – | – | N#Cc1cnc2c(Cl)cc(N[C@@H](c3ccc(F)cc3)c3cn(C(F)F)nn3)cc2c1Nc1cnc(F)c(F)c1 [Example 377, (S)-8-chloro-6-(((1-(difluoromethyl)-1H-1,2,3-triazol-4-yl)(4-fluorophenyl)methyl)amino)-4-((5,6-difluoropyridin-3-yl)amino)quinoline-3-carbonitrile]
21 | 16 | 203 | – | – | – | [2H][C@](Nc1cc(Cl)c2ncc(C#N)c(N[C@H](C)C(C)(C)C)c2c1)(c1ccc(F)cc1)c1cn(C2CC2)nn1 [Example 188, 8-chloro-6-(((S)-(1-cyclopropyl-1H-1,2,3-triazol-4-yl)(4-fluorophenyl)methyl-d)amino)-4-(((R)-3,3-dimethylbutan-2-yl)amino)quinoline-3-carbonitrile]
22 | 71 | 221 | – | – | – | [2H][C@](Nc1cc(Br)c2ncc(C#N)c(NCC(C)(C)C)c2c1)(c1ccc(F)cc1)c1nnn(C2CC2)c1SC [Compound 13, (S)-8-bromo-6-(((1-cyclopropyl-5-(methylthio)-1H-1,2,3-triazol-4-yl)(4-fluorophenyl)methyl-d)amino)-4-(neopentylamino) quinoline-3-carbonitrile]
